Measurements published in ChEMBL document CHEMBL4422685, “Design, synthesis and evaluation of a series of 5-methoxy-2,3-naphthalimide derivatives as AcrB inhibitors for the reversal of bacterial resistance” (Bioorg Med Chem Lett, 2019).
≈ marks a conversion by molar mass, not a printed value.

Key:
[1] = Solubility of the compound in DMSO; type: physicochemical
Escherichia coli = test: Antimicrobial activity against AcrB deficient Escherichia coli; type: functional

Structure (SMILES)	solubility [1]	MIC (Escherichia coli) [µg/mL]
COc1cccc2cc3c(cc12)C(=O)N(Cc1ccc(C)cc1)C3=O	Insoluble	
C[C@H]1COc2c(N3CCN(C)CC3)c(F)cc3c(=O)c(C(=O)O)cn1c23.C[C@H]1COc2c(N3CCN(C)CC3)c(F)cc3c(=O)c(C(=O)O)cn1c23.O [LEVOFLOXACIN]		0.0039
CCCCc1ccc(N2C(=O)c3cc4cccc(OC)c4cc3C2=O)cc1	Insoluble	
COc1cccc2cc3c(cc12)C(=O)N(c1ccc(C(C)C)cc1)C3=O	Insoluble	
CC[C@H]1OC(=O)[C@H](C)[C@@H](O[C@H]2C[C@@](C)(OC)[C@@H](O)[C@H](C)O2)[C@H](C)[C@@H](O[C@@H]2O[C@H](C)C[C@H](N(C)C)[C@H]2O)[C@](C)(O)C[C@@H](C)C(=O)[C@H](C)[C@@H](O)[C@]1(C)O [ERYTHROMYCIN]		64 (≈ 87.2 µM)
COc1cccc2cc3c(cc12)C(=O)N(Cc1ccc(Cl)cc1)C3=O	Insoluble	
COc1cccc2cc3c(cc12)C(=O)N(c1ccccc1C(F)(F)F)C3=O	Insoluble	
CCc1ccc(N2C(=O)c3cc4cccc(OC)c4cc3C2=O)cc1	Insoluble	
[Cl-].c1ccc([P+](c2ccccc2)(c2ccccc2)c2ccccc2)cc1 [TETRAPHENYLPHOSPHONIUM CHLORIDE]		32
